Data reported in US20040152106A1, “Gene necessary for striatal function, uses thereof, and compounds for modulating same” (priority 1999, published 2004).

Tests used:
[1] = target: T1, PDE10A (Mus musculus, UniProt Q8CA95); conditions: among inhibitors tested on PDE10A; cited from earlier work
T1 sequence (Q8CA95 1-779 isoform Q8CA95-2): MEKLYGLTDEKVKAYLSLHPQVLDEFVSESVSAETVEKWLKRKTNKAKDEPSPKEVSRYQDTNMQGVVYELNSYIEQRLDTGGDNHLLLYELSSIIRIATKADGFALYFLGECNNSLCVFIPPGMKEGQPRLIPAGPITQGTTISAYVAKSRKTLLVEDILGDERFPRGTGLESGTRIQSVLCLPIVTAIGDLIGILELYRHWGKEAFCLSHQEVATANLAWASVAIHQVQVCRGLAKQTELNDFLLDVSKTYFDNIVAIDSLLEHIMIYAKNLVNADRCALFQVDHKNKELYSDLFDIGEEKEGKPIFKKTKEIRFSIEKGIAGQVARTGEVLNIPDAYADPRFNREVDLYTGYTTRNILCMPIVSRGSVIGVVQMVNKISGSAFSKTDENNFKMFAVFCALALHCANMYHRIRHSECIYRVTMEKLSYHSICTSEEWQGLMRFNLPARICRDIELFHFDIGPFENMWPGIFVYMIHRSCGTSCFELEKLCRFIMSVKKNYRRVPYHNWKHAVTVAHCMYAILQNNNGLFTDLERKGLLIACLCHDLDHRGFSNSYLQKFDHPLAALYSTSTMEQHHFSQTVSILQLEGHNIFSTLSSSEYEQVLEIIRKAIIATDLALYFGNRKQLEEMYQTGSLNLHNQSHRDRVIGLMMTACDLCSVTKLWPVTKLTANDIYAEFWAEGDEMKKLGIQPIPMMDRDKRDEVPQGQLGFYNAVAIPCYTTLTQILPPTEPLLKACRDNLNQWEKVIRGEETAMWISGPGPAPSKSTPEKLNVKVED

[2] = test system: Huntington's disease patient; assay: Clinical use of PDE10A modulator in a Huntington's disease patient (case report); format: in vivo, human; conditions: 200 mg twice daily resumed after 7 days of suspension
Experimental: A person was admitted to hospital from a long-term care facility due to progressive deterioration of their physical and mental symptoms caused by Huntington's disease. The patient had been diagnosed with Huntington's disease. Prior to admission to the hospital, they had become increasingly aggressive and uncooperative. Moreover, there appeared to be an increase in the number of psychotic episodes. […] The patient had been stable for a number of years on the antipsycotic haloperidol (3 mg/day). For the last two years, the haloperidol had been replaced by olanzapine (2.5-7.5 mg/day). Minocycline, a tetracycline derivative, was administered at 50 mg twice daily for 7 days, followed by 100 mg twice daily for 7 days and finally 200 mg twice daily for 5 weeks. […] The minocycline treatment was suspended for 7 days. […] Minocycline (200 mg twice daily) treatment will continue indefinitely. The improvement in behaviour and decrease in apparent psychosis has allowed for the transfer of the patient from the acute care facility back to long-term care.

SMILES	potency as inhibitor of PDE10A activity [1]	time to response after resumed treatment [2]
OCCN(CCO)c1nc(N2CCCCC2)c2nc(N(CCO)CCO)nc(N3CCCCC3)c2n1 [Dipyridamole]	highest potency	
CC(C)Cn1c(=O)n(C)c(=O)c2[nH]cnc21 [IBMX]	potent inhibitor	
CN(C)c1ccc(O)c2c1C[C@H]1C[C@H]3[C@H](N(C)C)C(O)=C(C(N)=O)C(=O)[C@@]3(O)C(O)=C1C2=O [Minocycline]		≤ 3 days
CN1C(=O)c2[nH]c(Cc3ccc(C(F)(F)F)cc3)nc2N2C1=N[C@@H]1CCC[C@@H]12 [SCH 51866]	highest potency	
